Patent publication US6635802B1, “Nuclear transfer using cells cultured in serum starvation media containing apoptosis inhibitors” (The Texas A&M University System, priority 2000, dated 2003)

B1: α2-macroglobulin (protein, UniProt P01023 24-1474, looked up)
Alpha-2-macroglobulin: SVSGKPQYMVLVPSLLHTETTEKGCVLLSYLNETVTVSASLESVRGNRSLFTDLEAENDVLHCVAFAVPKSSSNEEVMFLTVQVKGPTQEFKKRTTVMVKNEDSLVFVQTDKSIYKPGQTVKFRVVSMDENFHPLNELIPLVYIQDPKGNRIAQWQSFQLEGGLKQFSFPLSSEPFQGSYKVVVQKKSGGRTEHPFTVEEFVLPKFEVQVTVPKIITILEEEMNVSVCGLYTYGKPVPGHVTVSICRKYSDASDCHGEDSQAFCEKFSGQLNSHGCFYQQVKTKVFQLKRKEYEMKLHTEAQIQEEGTVVELTGRQSSEITRTITKLSFVKVDSHFRQGIPFFGQVRLVDGKGVPIPNKVIFIRGNEANYYSNATTDEHGLVQFSINTTNVMGTSLTVRVNYKDRSPCYGYQWVSEEHEEAHHTAYLVFSPSKSFVHLEPMSHELPCGHTQTVQAHYILNGGTLLGLKKLSFYYLIMAKGGIVRTGTHGLLVKQEDMKGHFSISIPVKSDIAPVARLLIYAVLPTGDVIGDSAKYDVENCLANKVDLSFSPSQSLPASHAHLRVTAAPQSVCALRAVDQSVLLMKPDAELSASSVYNLLPEKDLTGFPGPLNDQDNEDCINRHNVYINGITYTPVSSTNEKDMYSFLEDMGLKAFTNSKIRKPKMCPQLQQYEMHGPEGLRVGFYESDVMGRGHARLVHVEEPHTETVRKYFPETWIWDLVVVNSAGVAEVGVTVPDTITEWKAGAFCLSEDAGLGISSTASLRAFQPFFVELTMPYSVIRGEAFTLKATVLNYLPKCIRVSVQLEASPAFLAVPVEKEQAPHCICANGRQTVSWAVTPKSLGNVNFTVSAEALESQELCGTEVPSVPEHGRKDTVIKPLLVEPEGLEKETTFNSLLCPSGGEVSEELSLKLPPNVVEESARASVSVLGDILGSAMQNTQNLLQMPYGCGEQNMVLFAPNIYVLDYLNETQQLTPEIKSKAIGYLNTGYQRQLNYKHYDGSYSTFGERYGRNQGNTWLTAFVLKTFAQARAYIFIDEAHITQALIWLSQRQKDNGCFRSSGSLLNNAIKGGVEDEVTLSAYITIALLEIPLTVTHPVVRNALFCLESAWKTAQEGDHGSHVYTKALLAYAFALAGNQDKRKEVLKSLNEEAVKKDNSVHWERPQKPKAPVGHFYEPQAPSAEVEMTSYVLLAYLTAQPAPTSEDLTSATNIVKWITKQQNAQGGFSSTQDTVVALHALSKYGAATFTRTGKAAQVTIQSSGTFSSKFQVDNNNRLLLQQVSLPELPGEYSMKVTGEGCVYLQTSLKYNILPEKEEFPFALGVQTLPQTCDEPKAHTSFQISLSVSYTGSRSASNMAIVDVKMVSGFIPLKPTVKMLERSNHVSRTEVSSNHVLIYLDKVSNQTLSLFFTVLQDVPVRDLKPAIVKVYDYYETDEFAIAEYNAPCSKDLGNA

Legend:
Format in all cases: cell-based
[1] = tested on: Porcine embryonic fibroblast (PEF); assay: Cell cycle distribution (propidium iodide flow cytometry) of serum starved porcine embryonic fibroblasts; conditions: for Proportion of cells going into G0, in words: addition during the starvation period; for G0/G1 (%) / G2/M (%) / S (%): serum starvation 5 days, MAC 0.7 pM, NAC 1 mM, GSH 2 mM
Description: (§1) Porcine embryonic fibroblast (PEF) were isolated from day 25-28 fetuses according to the methods previously described (Hogan et al., 1994). Briefly, porcine fetuses of day 25-30 (day 0=estrus) were removed from the uterus and rinsed with PBS+penicillin/streptomycin solution (PBS/PS). Head, limbs and internal organs were removed, and the carcasses were minced with razor blades or ground using a syringe head until they were the consistency of sludge. Then these were trypsinized 2-3 times using 0.25% trypsin+EDTA for 20 minutes. The supernatant fraction was removed and centrifuged to collect the cells. The cells were plated using DMEM+10% fetal bovine serum (FBS) and cultured up to 80-90% confluency before further passage.
(§2) Bovine embryonic fibroblasts (BEF) were isolated from the fetus with 3-5 cm crown-rump length. After two or three passages, cells were plated one million cells per plate (100 mm) with growth medium (DMEM) with 2 mM L-glutamine, 0.1 mM β-mercaptoethanol and 10% FBS. After 24 hours, cells were washed with PBS 3-5 times and then serum starvation medium with 0.5% FBS was added. In addition, cells were treated with serum starvation medium containing apoptosis inhibitors such as a2-macroglobulin (0.7 pM), N-acetylcysteine (1 mM) and glutathione (2 mM). Cells were treated with serum starvation with or without apoptosis inhibitors for 5 or 10 days. Then cells were trypsinized and counted.
(§3) Cells (1×10^6) were washed in 0.15 M NaCI, fixed in 70% ethanol, and stored at −20° C. overnight or until ready to be analyzed. For analysis, cells were centrifuged, rinsed with PBS, resuspended in 500 μl of a 0.05 mg/ml propidium iodide/0.1% Triton X-100/0.2 mg/ml RNase A solution, and incubated for a minimum of 30 minutes at room temperature in the dark. Cells were analyzed by flow cytometry to determine DNA content. Modfit LT™ (Verity Software House, Topsham, Me.) was used to model the cell cycle distribution within each sample.

[2] = tested on: porcine PGCs; assay: Porcine PGCs plated in chambered slides in the absence of feeder layers, with or without growth factors; AP-positive cells counted; conditions: for Number of PGCs surviving in culture, in words: absence of feeder layers, 24, 48, 72 hours
Procedure: FIG. 8. Freshly isolated PGCs were plated in chambered slides in the absence of feeder cells and incubated in media with no protease inhibitors or antioxidants (PES), with MAC (MAC) or with NAC (NAC), either with or without growth factors (G), for 24, 48 or 72 hours. Cells were fixed, stained for alkaline phosphatase (AP) as previously described, and counted (normalized to control; left vertical axis).
After culture, colonies were stained, counted and analyzed as described above. To determine the effects of MAC and NAC on porcine PGCs, cells were exposed to those inhibitors during the first half period of culture (4-5 days) or the last half period (4-5 days), respectively. In addition, to determine the effect of MAC and NAC in the absence of feeders, cells were plated on chambered slides previously coated with 0.1% gelatin and medium with or without inhibitors in the presence or absence of growth factors. Cells were fixed, stained for AP and counted at the interval of 24, 48, and 72 hours.
Freshly isolated PGCs were plated in chambered slides in the absence of feeders and incubated in media with or without growth factors (GF) and with or without MAC and NAC. Cells were fixed, stained for AP as previously described, and counted.

[3] = tested on: mouse ES cells; assay: Culture of mouse ES cells with NAC
[4] = tested on: Bovine embryonic fibroblasts (BEF); assay: Cell cycle distribution (propidium iodide flow cytometry) of serum starved bovine embryonic fibroblasts; conditions: for Proportion of cells going into G0, in words: addition during the starvation period; for G2/M (%) / S (%): serum starvation 5 days; for G2/M (%) / S (%) / G0/G1 (%): MAC 0.7 pM, NAC 1 mM, GSH 2 mM; for G0/G1 (%): serum starvation (0.5% FBS) 5 days
Procedure: as §2, §3

[5] = tested on: Porcine embryonic fibroblast (PEF); assay: TUNEL assay (flow cytometry) of serum starved porcine embryonic fibroblasts; conditions: serum starvation 5 days, MAC 0.7 pM, NAC 1 mM, GSH 2 mM, serum starved without inhibitor 26.50
Description: as §1, §2
After counting, cells were fixed and stained according to protocols with the APO-BRDU kit (Phoenix Flow Systems, San Diego, Calif.). […] To determine base line fluorescence, control cells were incubated without TdT. […] Following counterstaining with a propidium iodide/RNase A solution for 30 minutes in the dark, which allows simultaneous analysis of cell cycle position and apoptosis, cells were analyzed on a FACSCalibur™ flow cytometer (Becton Dickinson, San Jose, Calif.). Fluorescence emissions were measured at 582±21 nm for propidium iodide and 530±15 nm for fluorescein, without spectral compensation, after excitation at 488 nm by an argon-ion laser. […]

| Molecule | Proportion of cells going into G0, in words [1] | G0/G1 (%) [1] | G2/M (%) [1] | S (%) [1] | Rescue of PGCs, in words ([2]; absence of feeder layers and of growth factors, after 72 hr of culture) | Number of PGCs surviving in culture, in words [2] | % viable cells, in words ([3]; in the presence of NAC) | Effect on mouse ES cells, in words ([3]; normal culture conditions and absence of BME) | Proportion of cells going into G0, in words [4] | G2/M (%) [4] | S (%) [4] | G0/G1 (%) [4] | 5-day Apoptosis (%) [5] |
| --- | --- | --- | --- | --- | --- | --- | --- | --- | --- | --- | --- | --- | --- |
| CC(=O)N[C@@H](CS)C(=O)O [NAC, N-acetylcysteine] | did not affect the proportion of cells going into G0 | 95% | 3% | 2% | able to rescue the PGCs | increased the number of PGCs surviving in culture | not greatly affected | beneficial effect | did not affect the proportion of cells going into G0 | 10% | 2% | 88% | 0.06% |
| B1 | did not affect the proportion of cells going into G0 | 95% | 4% | 1% | – | increased the number of PGCs surviving in culture | – | – | did not affect the proportion of cells going into G0 | 10% | 5% | 85% | 11.60% |
